Assay [1] deals with FGFR2 V564I (Homo sapiens, UniProt P21802, V564I). The assay is described as follows: FGFR mutant enzyme assay (HTRF KinEASE-TK), FGFR2 V564I. Type of assay: biochemical. Conditions: Table 4. The text has this: (§1) (Catalogue number 62TK0PEC).
Assay [2] addresses FGFR2 (Homo sapiens, UniProt P21802). The assay is described as follows: FGFR wild type enzyme assay (HTRF KinEASE-TK), FGFR2.
The target of assay [3] is FGFR2 N549H (Homo sapiens, UniProt P21802, N549H). The assay is described as follows: FGFR mutant enzyme assay (HTRF KinEASE-TK), FGFR2 N549H. Format: biochemical. As to conditions: Table 4.
Source text: as §1

In assay [4] the target is FGFR2 V564F (Homo sapiens, UniProt P21802, V564F). The assay is described as follows: FGFR mutant enzyme assay (HTRF KinEASE-TK), FGFR2 V564F. Format: biochemical. As to conditions: Table 4.
Source text: as §1

In assay [5] the target is FGFR2-WT (Homo sapiens, UniProt P21802). The assay is described as follows: Phosphorylated FGFR2-WT (pFGFR2-WT) cell assay, KATOIII cells. Conditions: Table 4. Format: cell-based. The procedure:
Phosphorylated FGFR2-WT (pFGFR2-WT) Cell Assay:
KATOIII cells were grown in the appropriate growth medium, IMDM supplemented with 20% fetal bovine serum. Cells were seeded into a 384-well at 1×10^5 cells/25 μL/well. Cells were treated with compound using three-fold serial dilutions at final concentrations ranging from 10 μM to 0.5 nM. Compound was incubated on cells for 1 hour at 37° C., 5% CO2.
Following the 1-hour incubation with compounds, cell lysates were prepared and phospho FGFR2 was measured using the HTRF Phospho-FGFR2 (TYR653/654) Detection Kits (CisBio, cat #64FGFR2Y6PEG). 8 μL of cell lysis buffer (4×) supplied with 1× Phospho and Total protein blocking reagent (CisBio, cat #64FGFR2Y6PEG, CisBio, cat #64KB1AAC) was then added to the wells. Cells were incubated with lysis buffer for 40 minutes at 4° C. under shaking conditions. Plates were centrifuged at 1500 rpm for 3 min and then 16 μL of cell lysate was transferred from the cell-culture plate to a small volume detection plate with the added premixed antibody solutions (4 μL) (CisBio, cat #64FGFR2Y6PEG). Plates were centrifuged at 1000 rpm for 1 min then incubated at 25° ° C. for 120 min, then overnight at 4° C. Plates were read on the EnVision multimode plate reader via HTRF dual wavelength detection. One hundred percent of control (POC) was determined using DMSO treated samples, and 0 POC was determined using the top concentration of a control compound. A 4-parameter logistic curve was fit to the POC values as a function of compound concentration to determine the IC50 value.

FGFR2 V564F, sequence (P21802 399-821 V564F limits assumed): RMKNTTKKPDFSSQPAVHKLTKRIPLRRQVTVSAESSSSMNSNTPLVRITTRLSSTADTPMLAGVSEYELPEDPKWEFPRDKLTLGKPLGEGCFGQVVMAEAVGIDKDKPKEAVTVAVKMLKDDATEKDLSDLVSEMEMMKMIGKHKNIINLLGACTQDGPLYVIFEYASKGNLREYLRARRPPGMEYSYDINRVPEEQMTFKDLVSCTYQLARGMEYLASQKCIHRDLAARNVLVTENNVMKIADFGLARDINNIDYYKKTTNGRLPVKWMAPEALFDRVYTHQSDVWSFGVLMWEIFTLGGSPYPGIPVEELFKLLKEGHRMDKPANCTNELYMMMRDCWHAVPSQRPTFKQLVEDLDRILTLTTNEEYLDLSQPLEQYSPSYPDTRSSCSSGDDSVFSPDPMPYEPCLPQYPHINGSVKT
FGFR2 N549H, sequence (P21802 399-821 N549H limits assumed): as the sequence (P21802 399-821 V564F limits assumed) above, with N151H, F166V counted along it
FGFR2-WT, sequence (P21802 22-821): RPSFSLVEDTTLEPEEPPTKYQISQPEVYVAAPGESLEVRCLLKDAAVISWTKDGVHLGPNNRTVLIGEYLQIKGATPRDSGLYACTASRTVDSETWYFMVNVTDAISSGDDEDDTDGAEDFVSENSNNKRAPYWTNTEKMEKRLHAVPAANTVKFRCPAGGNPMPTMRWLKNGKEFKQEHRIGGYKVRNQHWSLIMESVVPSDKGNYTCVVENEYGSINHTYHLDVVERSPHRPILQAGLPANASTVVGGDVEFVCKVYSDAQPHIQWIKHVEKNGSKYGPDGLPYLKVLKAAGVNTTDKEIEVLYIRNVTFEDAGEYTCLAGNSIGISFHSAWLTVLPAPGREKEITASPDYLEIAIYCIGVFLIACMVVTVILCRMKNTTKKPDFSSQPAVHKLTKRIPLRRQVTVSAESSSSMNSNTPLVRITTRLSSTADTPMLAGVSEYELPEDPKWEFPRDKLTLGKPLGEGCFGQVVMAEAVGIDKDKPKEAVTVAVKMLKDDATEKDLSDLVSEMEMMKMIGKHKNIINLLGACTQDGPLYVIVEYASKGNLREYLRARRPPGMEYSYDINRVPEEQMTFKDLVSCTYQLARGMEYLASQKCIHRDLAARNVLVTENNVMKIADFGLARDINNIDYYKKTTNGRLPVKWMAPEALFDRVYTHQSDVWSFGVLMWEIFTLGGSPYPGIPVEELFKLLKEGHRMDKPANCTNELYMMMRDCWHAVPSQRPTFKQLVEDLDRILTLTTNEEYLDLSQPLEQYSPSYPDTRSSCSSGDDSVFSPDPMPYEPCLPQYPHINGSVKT
FGFR2 V564I, sequence (P21802 399-821 V564I limits assumed): as the sequence (P21802 399-821 V564F limits assumed) above, with F166I counted along it
FGFR2, sequence (P21802 399-821 limits assumed): as the sequence (P21802 399-821 V564F limits assumed) above, with F166V counted along it

Turning to `N#Cc1cnn2cc(-c3cnn([C@H]4CCCNC4)c3)cc(Sc3ccccn3)c12` [Example 1, 6-[1-[(3S)-3-Piperidyl]pyrazol-4-yl]-4-(2-pyridylsulfanyl) pyrazolo[1,5-a]pyridine-3-carbonitrile], the IC50 in assay [1] is 6 nM; in assay [2] (FGFR2 Enz, Table 4), 3 nM; in assay [3] it was 1.5 nM; in assay [4], 3 nM; in assay [5] it was 25 nM.

Turning to `Cc1c(-c2cc(Sc3cccc(F)c3C#N)c3c(C#N)cnn3c2)cnn1C1CCNCC1` [Example 130, 4-(2-cyano-3-fluoro-phenyl)sulfanyl-6-[5-methyl-1-(4-piperidyl)pyrazol-4-yl]pyrazolo[1,5-a]pyridine-3-carbonitrile], the IC50 stood at 5 nM in assay [1]; 2 nM in assay [2] (Enz FGFR2 (nM)); 1 nM in assay [2] (FGFR2 Enz, Table 4); 3 nM in assay [3]; 4 nM in assay [4]; 117 nM in assay [5].

For `CN[C@H]1CC[C@@H](n2ncc(-c3cc(Sc4ccccc4C#N)c4c(C#N)cnn4c3)c2C)CC1` [Example 117, -[(5-fluoro-2-methyl-4-pyridyl)sulfany1]-6-[5-methyl-1-(4-piperidyl)pyrazol-4-yl]pyrazolo[1,5-a]pyridine-3-carbonitrile], the IC50 in assay [1] came to 1 nM; in assay [2] (Enz FGFR2 (nM)) it was 0.3 nM; in assay [2] (FGFR2 Enz, Table 4), 0.3 nM; in assay [3] it was 0.2 nM; in assay [4] it was 0.5 nM; in assay [5], 28 nM.
